Where “and” joins values, the source holds several entries; their conditions need not be identical. Identical values can stand only once. Like-named read-outs stand apart in the source and are kept apart here.
Tests used:
MCL-1 = MCL-1 (Homo sapiens, UniProt Q07820); test: Protein-protein interaction assay MCL-1/Noxa BH3 peptide (MCL-1 assay), TR-FRET; assay type: binding; details: MBP-MCL-1 / Noxa BH3-derived peptide, median
Description: Protein-Protein Interaction Assay: MCL-1/Noxa BH3 Peptide (MCL-1 Assay) […]
In the assay 11 different concentrations of each compound (0.1 nM, 0.33 nM, 1.1 nM, 3.8 nM, 13 nM, 44 nM, 0.15 μM, 0.51 μM, 1.7 μM, 5.9 μM and 20 μM) were typically measured as duplicates in the same microtiter plate. For that, 100-fold concentrated DMSO solutions were prepared by serial dilutions (1:3.4) of a 2 mM stock solution in a clear, 384-well microtiter plate (Greiner Bio-One, Frickenhausen, Germany). From there, 50 ni were transferred in a dark test plate (Greiner Bio-One, Frickenhausen, Germany). The assay was initiated by addition of 2 μl of a 2.5-fold concentrated MBP-MCL-1 solution (usually for a 1 nM end concentration in 5 μl reaction volume) in aqueous assay buffer [50 mM Tris/HCl pH 7, 100 mM sodium chloride (NaCl), 50 mM potassium fluoride (KF), 0.005% Tween-20, 2 mM DTT, 0.1% bovine gamma globulin (BGG)] to the compounds in the assay plate. This was followed by a 10-minute incubation step at 22° C. for pre-equilibration of the putative complex between MBP-MCL-1 and the compounds. After that.
The mixture was incubated in the dark for one hour at 22° C. and then overnight at 4° C. The formation of MCL-1/Noxa complexes was determined by measuring the resonance energy transfer of the anti-MBP- Eu-cryptate antibody to the streptavidin-XL665 present in the reaction. For that purpose, the fluorescence emission at 620 nm and 665 nm after excitation at 330-350 nm was measured in a TR-FRET measuring instrument, for instance a Rubystar or a Pherastar (both from BMG Lab Technologies, Offenburg, Germany) or a Viewlux (Perkin-Elmer). The ratio of the emission at 665 nm and at 622 nm was used as indicator of the amount of MCL-1/NOXA complexes present.
The resulting data (ratio) were normalized, taking 0% inhibition as the mean value of control measurements (usually 32 data points) where all reagents were included. In this case 50 nl DMSO were used instead of compounds. A 100% inhibition corresponded to the mean value of control measurements (usually 32 data points) where all reagents except MCL-1 were included. IC50 values were determined by regression analysis based on a 4 parameter equation (minimum, maximum, IC50, Hill; Y=Max+(Min−Max)/(1+(X/IC50)^Hill) using the Screener Software (Genedata).

SUDHL5 [1] = test: Induction of caspase-3/7 activity (Caspase-Glo 3/7), SUDHL5; assay type: cell-based; details: caspase-3/7 induction, SUDHL5 cells, 3 h treatment, median
Description: (§1) Induction of Caspase-317 Activity Upon Treatment of Cells with Selected Compounds
(§2) The BH3-domain of MCL-1 sequesters pro-apoptotic proteins, thereby inhibiting apoptosis. In contrast, MCL-1 inhibitors are expected to antagonize this effect leading to an increase in apoptosis, which can be determined by measuring the activity of caspase-3/7.
(§3) The activity of caspase-3/7 was determined in DLBCL (Diffuse large B-cell lymphoma) cell lines (SUDHL5 and SUDHL10) upon treatment with different compounds, using the Caspase-Glo® 3/7 reagent from Promega (G8092).
(§4) Rim wells were excluded. The cells were incubated for 3 h hours in a humidified incubator at 37° C.
(§5) For the evaluation of the results, the background measured with “medium-only” was subtracted from all other values. […] The Bella DRC Master Sheet was used to calculate EC50s, with fixed C0=1 and CI=plateaulmax induction for the reference compound.

SUDHL10 [2] = test: Induction of cytotoxicity (CellTiter-Glo, 5 h), SUDHL10
SUDHL10 [3] = test: Induction of caspase-3/7 activity (Caspase-Glo 3/7), SUDHL10; assay type: cell-based; details: caspase-3/7 induction, SUDHL10 cells, 3 h treatment, median
Description: as §1, §2, §3, §4, §5

SUDHL5 [4] = test: Anti-proliferative effect (CellTiter-Glo, 72 h), SUDHL5; assay type: cell-based; details: Homo sapiens, SU-DHL-5, 72 h, SUDHL5 cells, antiproliferation, 72 h incubation, median, read-out: Antiproli SUDHL5 [M] (median)
Description: (§6) Assessment of the Anti-Proliferative Effect of Compounds in Different Cell Lines
(§7) The impact of compounds on the proliferation of different cell lines was assessed using the CellTiter-Glo® Luminescent Cell Viability reagent from Promega (G7573). Of note, SUDHL10 and SUDHL5 (DLBCL), NCI-H929 (Multiple Myeloma), A2780 (ovarian carcinoma) as well as MV-4-11(AML) cells are sensitive to MCL-1 inhibition.
(§8) In parallel, cells were plated in a reference (day 0) plate for time zero determination.
(§9) Rim wells were excluded. The cells were incubated for 72 h hours in a humidified incubator at 37° C. The day 0 plate was measured by adding 30 μl/well of CTG solution (CellTiter-Glo® Luminescent Cell Viability reagent, Promega G7573) to time zero wells in the reference plate followed by a 10 minutes incubation and luminescence reading at 0.1 ms, using the PHERAstar FS microplate reader (BMG Labtech).
(§10) After 72 h incubation, the treated plates were measured in the same way as the day 0 plate mentioned above.

SUDHL5 [5] = test: Induction of cytotoxicity (CellTiter-Glo, 5 h), SUDHL5
A2780 = test: Anti-proliferative effect (CellTiter-Glo, 72 h), A2780; assay type: cell-based; details: Homo sapiens, A2780, 72 h, A2780 cells, median, read-out: IC50 antiproliferation assay A2780 [M] (median)
Description: as §6, §7, §8, §9, §10

[6] = read-out: Cytotox SUDHL10 [M] (median), SUDHL10 cells, cytotoxicity induction, CellTiter-Glo, 5 h incubation, median
[7] = Homo sapiens, SU-DHL-5, 5 h, read-out: Cytotox SUDHL5 [M] (median), SUDHL5 cells, cytotoxicity induction, CellTiter-Glo, 5 h incubation, median
[8] = Homo sapiens, SU-DHL10, 5 h, read-out: Cytotox SUDHL10 [M] (median), SUDHL10 cells, cytotoxicity induction, CellTiter-Glo, 5 h incubation, median

Chain of MCL-1 (Q07820 whole entry): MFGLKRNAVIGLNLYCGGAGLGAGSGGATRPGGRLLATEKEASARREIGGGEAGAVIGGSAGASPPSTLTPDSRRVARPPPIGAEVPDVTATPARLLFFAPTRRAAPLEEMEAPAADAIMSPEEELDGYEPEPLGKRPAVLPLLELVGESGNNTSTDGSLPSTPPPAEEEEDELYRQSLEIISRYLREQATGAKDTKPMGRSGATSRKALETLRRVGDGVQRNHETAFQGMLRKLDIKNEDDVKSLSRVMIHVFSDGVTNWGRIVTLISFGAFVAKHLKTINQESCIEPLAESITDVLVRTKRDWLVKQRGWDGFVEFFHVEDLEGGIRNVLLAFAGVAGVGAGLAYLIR

SMILES | IC50 (MCL-1) [µM] | EC50 (SUDHL5 [1]) | IC50 (SUDHL10 [2]; [6]) | EC50 (SUDHL5 [1]; Homo sapiens, SU-DHL-5, 3 h) [µM] | EC50 (SUDHL10 [3]; Homo sapiens, SU-DHL10, 3 h) [µM] | IC50 (SUDHL5 [4]) [M] | IC50 (SUDHL5 [5]; [7]) [M] | IC50 (SUDHL10 [2]; [8]) [M] | EC50 (SUDHL10 [3]) [µM] | IC50 (SUDHL5 [5]; read-out: Cytotox SUDHL5 [M] (median), SUDHL5 cells, cytotoxicity induction, CellTiter-Glo, 5 h incubation, median) | IC50 (A2780) [M]
Cc1nn(C)c2c1-c1cccc3c(CCCOc4cccc5ccccc45)c(C(=O)O)n(c13)CCCN(c1ccc(N3CCN(S(=O)(=O)N(C)C)CC3)cc1)C2 (single isomer, unassigned; enantiomer 2) [Example 1-107, 7-{4-[4-(Dimethylsulfamoyl)piperazin-1-yl]phenyl}-9,11-dimethyl-1-[3-(1-naphthyloxy)propyl]-4,5,6,7,8,9-hexahydropyrazolo[3′,4′:7,8][1,5]diazecino[9,10,1-hi]indole-2-carboxylic Acid (Enantiomer 2)] | 0.0897 | 19.4 µM and > 33 µM | 2.89e-05 M and > 3.3e-05 M |  |  |  |  |  |  |  | 
Cn1nc(COc2ccc(C3(O)CCOCC3)cc2)c2c1COCCCCn1c(C(=O)O)c(CCCOc3cccc4ccccc34)c3cccc-2c31 (racemic) [Example 1-61, (rac)-3-{[4-(4-hydroxytetrahydro-2H-pyran-4-yl)phenoxy]methyl}-1-methyl-7-[3-(naphthalen-1-yloxy)propyl]-1,10,11,12,13,15-hexahydropyrazolo[4′,3′:9,10][1,6]oxazacycloundecino[8,7,6-hi]indole-8-carboxylic Acid] | 0.00293 |  |  | 6.16 | 10.7 | 5.41e-06 | 1.33e-05 | 2.11e-05 |  |  | 
CN1CCCn2c(C(=O)O)c(CCCOc3cccc4ccccc34)c3cccc(c32)-c2c(COCc3ccccc3)nn(C)c2C1 (racemic) [Example 1-93, (rac)-11-[(benzyloxy)methyl]-7,9-dimethyl-1-[3-(naphthalen-1-yloxy)propyl]-4,5,6,7,8,9-hexahydropyrazolo[3′,4′:7,8][1,5]diazecino[9,10,1-hi]indole-2-carboxylic Acid] | 0.0749 |  |  | > 33 | 31.8 |  | > 3.3e-05 | > 3.3e-05 |  |  | 
CC(=O)N1CCN(c2ccc(OCc3nn(C)c4c3-c3cccc5c(CCCOc6cccc7ccccc67)c(C(=O)O)n(c35)CC=CCOC4)cc2)CC1 (racemic) [Example 1-1, (rac)-(E/Z)-3-{[4-(4-acetylpiperazin-1-yl)phenoxy]methyl}-1-methyl-7-[3-(naphthalen-1-yloxy)propyl]-1,10,13,25-tetrahydropyrazolo[4′,3′:9,10][1,6]oxazacycloundecino[8,7,6-hi]indole-8-carboxylic Acid] |  |  |  | 14.8 | 22.5 |  | > 3.3e-05 | > 3.3e-05 |  |  | 
Cn1nc(COc2ccccc2)c2c1COCCCCn1c(C(=O)O)c(CCCOc3cccc4ccccc34)c3cccc-2c31 (single isomer, unassigned) [Example 1-80, 1-methyl-7-[3-(naphthalen-1-yloxy)propyl]-3-(phenoxymethyl)-1,10,11,12,13,15-hexahydropyrazolo[4′,3′:9,10][1,6]oxazacycloundecino[8,7,6-hi]indole-8-carboxylic Acid] | 0.0501 | > 33 µM | > 3.3e-05 M |  |  |  |  |  | > 33 | > 3.3e-05 | 
Cn1nc(COCc2ccccc2)c2c1COCC=CCn1c(C(=O)O)c(CCCOc3cccc4ccccc34)c3cccc-2c31 (racemic) [Example 1-94, (rac)-(E/Z)-3-[(benzyloxy)methyl]-1-methyl-7-[3-(naphthalen-1-yloxy)propyl]-1,10,13,15-tetrahydropyrazolo[4′,3′9,10][,6]oxazacycloundecino[8,7,6-hi]indole-8-carboxylic Acid] | 0.141 |  |  | > 33 | > 33 |  | > 3.3e-05 | > 3.3e-05 |  |  | 
Cc1ccc2c(CCCOc3cccc4ccccc34)c(C(=O)O)n3c2c1-c1c(nn(C)c1C)COCCCC3 (single isomer, unassigned; enantiomer 1) [Example 076, 2,3,4-trimethyl-7-[3-(naphthalen-1-yloxy)propyl]-2,10,11,12,13,15-hexahydropyrazolo[4′,3′:9,10][1,6]oxazacycloundecino[8,7,6-hi]indole-8-carboxylic Acid (Enantiomer 1)] | 0.00145 | 1.32 µM |  |  |  |  |  |  | 3.54 |  | 2.28e-05
Cn1nc(COc2ccccc2)c2c1COCCCCn1c(C(=O)O)c(CCCOc3cccc4ccccc34)c3cccc-2c31 (single isomer, unassigned) [Example 1-79, 1-methyl-7-[3-(naphthalen-1-yloxy)propyl]-3-(phenoxymethyl)-1,10,11,12,13,15-hexahydropyrazolo[4′3′:9,10][1,6]oxazacycloundecino[8,7,6-hi]indole-8-carboxylic Acid] | 0.656 |  |  | > 33 | 20.7 |  | > 3.3e-05 | 3.09e-05 |  |  | 
Cn1nc(COc2ccc(N3CCNCC3)cc2)c2c1COCC=CCn1c(C(=O)O)c(CCCOc3cccc4ccccc34)c3cccc-2c31 (racemic) [Example 1-2, (rac)-(E/Z)-1-methyl-7-[3-(naphthalen-1-yloxy)propyl]-3-{[4-(piperazin-1-yl)phenoxy]methyl}-1,10,13,15-tetrahydropyrazolo[4′,3′:9,10][1,6]oxazacycloundecino[8,7,6-hi]indole-8-carboxylic Acid] | 0.0706 |  |  | > 33 | > 33 |  | > 3.3e-05 | > 3.3e-05 |  |  | 
Cn1nc2c(c1CN1CCOCC1)-c1cccc3c(CCCOc4cccc5ccccc45)c(C(=O)O)n(c13)CCCCOC2 (racemic) [Example 078, (rac)-2-Methyl-3-(morpholin-4-ylmethyl)-7-[3-(naphthalen-1-yloxy)propyl]-2,10,11,12,13,15-hexahydropyrazolo[4′,3′:9,10][1,6]oxazacycloundecino[8,7,6-hi]indole-8-carboxylic Acid] | 0.0131 |  |  | 14.1 | > 33 |  |  |  |  |  | 1.96e-05

— patent US10981932B2, “Macrocyclic indole derivatives” (Bayer Aktiengesellschaft, priority 2016, dated 2021)
